Bounds are passed on as bounds.

human neprilysin (EC 3.4.24.11; NEP), sequence (P08473 52-750): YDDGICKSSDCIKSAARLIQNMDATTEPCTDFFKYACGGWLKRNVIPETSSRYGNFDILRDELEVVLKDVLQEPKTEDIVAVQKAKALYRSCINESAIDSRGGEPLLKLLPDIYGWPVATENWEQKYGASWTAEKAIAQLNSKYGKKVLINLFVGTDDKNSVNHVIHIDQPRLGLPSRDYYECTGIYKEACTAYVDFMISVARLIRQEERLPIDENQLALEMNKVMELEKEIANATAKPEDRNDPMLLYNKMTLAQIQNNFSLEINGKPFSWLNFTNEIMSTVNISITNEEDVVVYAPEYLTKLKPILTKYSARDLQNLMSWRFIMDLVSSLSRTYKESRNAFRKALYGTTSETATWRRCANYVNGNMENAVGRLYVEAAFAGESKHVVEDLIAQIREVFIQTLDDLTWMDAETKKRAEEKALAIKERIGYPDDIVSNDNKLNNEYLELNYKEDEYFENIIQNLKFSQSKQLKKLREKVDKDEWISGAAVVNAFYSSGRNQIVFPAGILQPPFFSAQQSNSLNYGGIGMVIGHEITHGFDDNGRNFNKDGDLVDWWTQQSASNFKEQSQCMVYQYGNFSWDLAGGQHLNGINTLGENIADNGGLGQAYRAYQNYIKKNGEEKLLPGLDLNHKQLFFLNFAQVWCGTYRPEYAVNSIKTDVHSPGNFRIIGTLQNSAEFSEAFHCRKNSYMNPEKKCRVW

The target of the experiment is human neprilysin (EC 3.4.24.11; NEP) (Homo sapiens (Human), UniProt P08473). Put plainly: In vitro enzyme inhibition assay at human NEP (fluorogenic peptide substrate). In kind it is biochemical. Conditions: pKi values at human NEP, recombinant human NEP. In outline:
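pKi derived from apparent Ki fitted as v=v0/[1+(I/K′)] to Ex320/Em405 fluorescence. Compounds (pM to 10 μM) sat with recombinant human enzyme 30 min at 37 °C before 10 μM fluorogenic Mca peptide was added in HEPES pH 7.5 buffer with 10 μM ZnSO4; 20 min reaction, acetic acid quench.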
For the compound `O=C(N[C@H](Cc1ccc(-c2ccccc2)cc1Cl)C[C@@H](O)C(=O)O)c1nn(-c2cccc(Cl)c2)c(=O)[nH]1` [Example 20-3, (2R,4R)-5-(3-Chloro-biphenyl-4-yl)-4-{[1-(3-chloro-phenyl)-5-oxo-4,5-dihydro-1H-[1,2,4]triazole-3-carbonyl]-amino}-2-hydroxy-pentanoic acid], the pKi is no less than 9.0. As to `O=C(N[C@H](Cc1ccc(-c2ccccc2)cc1Cl)C[C@@H](O)C(=O)O)c1nn(-c2ccccc2)c(=O)[nH]1` [Example 20-4, (2R,4R)-5-(3-Chloro-biphenyl-4-yl)-2-hydroxy-4-[(5-oxo-1-phenyl-4,5-dihydro-1H-[1,2,4]triazole-3-carbonyl)-amino]-pentanoic acid], the pKi is given as no less than 9.0. As to `CN(C)C(=O)c1cc(C(=O)N[C@H](Cc2ccc(-c3ccccc3)cc2Cl)C[C@@H](O)C(=O)O)[nH]n1` [Example 20-5, (2R,4R)-5-(3-Chloro-biphenyl-4-yl)-4-[(5-dimethylcarbamoyl-2H-pyrazole-3-carbonyl)-amino]-2-hydroxy-pentanoic acid], the pKi was no less than 9.0. As for `COCCN(C)C(=O)c1cc(C(=O)N[C@H](Cc2ccc(-c3ccccc3)cc2Cl)C[C@@H](O)C(=O)O)[nH]n1` [Example 20-6, (2R,4R)-5-(3-Chloro-biphenyl-4-yl)-2-hydroxy-4-({5-[(2-methoxy-ethyl)-methyl-carbamoyl]-2H-pyrazole-3-carbonyl}-amino)-pentanoic acid], the pKi is on record as no less than 9.0. Turning to `CC(=O)c1cc(C(=O)N[C@H](Cc2ccc(-c3ccccc3)cc2Cl)C[C@@H](O)C(=O)O)[nH]n1` [Example 20-7, (2R,4R)-4-[(5-Acetyl-2H-pyrazole-3-carbonyl)-amino]-5-(3-chloro-biphenyl-4-yl)-2-hydroxy-pentanoic acid], the pKi is recorded as no less than 9.0. On to `O=C(N[C@H](Cc1ccc(-c2ccccc2)cc1Cl)C[C@@H](O)C(=O)O)c1cc(-c2cccnc2)n[nH]1` [Example 20-8, (2R,4R)-5-(3-Chloro-biphenyl-4-yl)-2-hydroxy-4-[(5-pyridin-3-yl-2H-pyrazole-3-carbonyl)-amino]-pentanoic acid], for which the negative logarithm of the Ki (pKi) was no less than 9.0. With `O=C(N[C@H](Cc1ccc(-c2ccccc2)cc1Cl)C[C@@H](O)C(=O)O)c1cc(-c2ccccn2)n[nH]1` [Example 20-9, (2R,4R)-5-(3-Chloro-biphenyl-4-yl)-2-hydroxy-4-[(5-pyridin-2-yl-2H-pyrazole-3-carbonyl)-amino]-pentanoic acid], the Ki is 1.26 to 10 nM.

As to `O=C(N[C@H](Cc1ccc(-c2cccc(Cl)c2)cc1Cl)C[C@@H](O)C(=O)O)c1cnn[nH]1` [Example 21-1, (2R,4R)-5-(3,3′-Dichlorobiphenyl-4-yl)-2-hydroxy-4-[(3H-[1,2,3]triazole-4-carbonyl)-amino]-pentanoic acid], the pKi is no less than 9.0. With `COCc1cc(C(=O)N[C@H](Cc2ccc(-c3cccc(Cl)c3)cc2Cl)C[C@@H](O)C(=O)O)[nH]n1` [Example 21-2, (2R,4R)-5-(3,3′-Dichloro-biphenyl-4-yl)-2-hydroxy-4-[(5-methoxymethyl-2H-pyrazole-3-carbonyl)-amino]-pentanoic acid], the pKi is recorded as no less than 9.0. Consider `O=C(N[C@H](Cc1ccc(-c2cc(Cl)ccc2F)cc1)C[C@@H](O)C(=O)O)c1ccc2nnn(O)c2c1` [Example 22, (2R,4R)-5-(5′-Chloro-2′-fluorobiphenyl-4-yl)-2-hydroxy-4-[(3-hydroxy-3H-benzotriazole-5-carbonyl)-amino]-pentanoic Acid], for which the negative-log Ki (pKi) was no less than 9.0. For the compound `Cc1cccc(-c2ccc(C[C@@H](C[C@H](O)C(=O)O)NC(=O)c3ccc4nnn(O)c4c3)cc2)c1` [Example 23-1, (2S,4S)-2-Hydroxy-4-[(3-hydroxy-3H-benzotriazole-5-carbonyl)-amino]-5-(3′-methyl-biphenyl-4-yl)-pentanoic acid], the pKi is on record as no less than 9.0. As for `COc1ccccc1-c1ccc(C[C@@H](C[C@H](O)C(=O)O)NC(=O)c2ccc3nnn(O)c3c2)cc1` [Example 23-3, (2S,4S)-2-Hydroxy-4-[(3-hydroxy-3H-benzotriazole-5-carbonyl)-amino]-5-(2′-methoxy-biphenyl-4-yl)-pentanoic acid], the pKi is no less than 9.0. The same measure, in the same setting: next, `O=C(N[C@@H](Cc1ccc(-c2cc(Cl)ccc2Cl)cc1)C[C@H](O)C(=O)O)c1ccc2nnn(O)c2c1` [Example 23-4, (2S,4S)-5-(2′,5′-Dichlorobiphenyl-4-yl)-2-hydroxy-4-[(3-hydroxy-3H-benzotriazole-5-carbonyl)-amino]-pentanoic acid]: no less than 9.0.

Take `O=C(N[C@@H](Cc1ccc(-c2cc(O)cc(Cl)c2)cc1)C[C@H](O)C(=O)O)c1ccc2nnn(O)c2c1` [Example 23-8, (2S,4S)-5-(3′-Chloro-5′-hydroxy-biphenyl-4-yl)-2-hydroxy-4-[(3-hydroxy-3H-benzotriazole-5-carbonyl)-amino]-pentanoic acid]: the pKi was no less than 9.0. Take `CC(C)(c1ccc(-c2ccccc2)cc1)[C@H](C[C@@H](O)C(=O)O)NC(=O)c1cc(C(=O)O)n[nH]1` [Example 24, 5-[(S)-2-Biphenyl-4-yl-1-((R)-2-carboxy-2-hydroxy-ethyl)-2-methyl-propylcarbamoyl]-1H-pyrazole-3-carboxylic Acid]: the pKi is recorded as no less than 9.0.

`CC(C)(c1ccc(-c2ccccc2)cc1)[C@H](C[C@@H](O)C(=O)O)NC(=O)c1c[nH]nn1` [Example 25-1, (2R,4S)-5-Biphenyl-4-yl-2-hydroxy-5-methyl-4-[(1H-[1,2,3]triazole-4-carbonyl)-amino]-hexanoic acid]: the Ki is 12.6 to 100 nM.

Consider `CC(C)(c1ccc(-c2ccccc2)cc1)[C@H](C[C@@H](O)C(=O)O)NC(=O)c1cn(O)nn1` [Example 25-2, (2R,4S)-5-Biphenyl-4-yl-2-hydroxy-4-[(1-hydroxy-1H-[1,2,3]triazole-4-carbonyl)-amino]-5-methyl-hexanoic acid], for which the Ki is 1.26 to 10 nM. In the case of `CC(C)(c1ccc(-c2ccccc2)cc1)[C@H](C[C@@H](O)C(=O)O)NC(=O)c1cc(O)no1` [Example 25-3, (2R,4S)-5-Biphenyl-4-yl-2-hydroxy-4-[(3-hydroxy-isoxazole-5-carbonyl)-amino]-5-methyl-hexanoic acid], the pKi is no less than 9.0.

Broadly, the pKi is the Ki on a negative log10 scale, so that one unit is a factor of ten. Usually Ki stands for a measure of affinity in units of concentration, obtained from inhibition or displacement.
